Columns and labels:
ALK5 kinase = target: T1, ALK5 kinase (Homo sapiens, UniProt P36897); experiment: LanthaScreen Eu Kinase Binding Assay; conditions: Kinase Tracer 178, Eu-anti-GST Antibody, read-out: IC50 Enzyme
T1 sequence (P36897 34-503): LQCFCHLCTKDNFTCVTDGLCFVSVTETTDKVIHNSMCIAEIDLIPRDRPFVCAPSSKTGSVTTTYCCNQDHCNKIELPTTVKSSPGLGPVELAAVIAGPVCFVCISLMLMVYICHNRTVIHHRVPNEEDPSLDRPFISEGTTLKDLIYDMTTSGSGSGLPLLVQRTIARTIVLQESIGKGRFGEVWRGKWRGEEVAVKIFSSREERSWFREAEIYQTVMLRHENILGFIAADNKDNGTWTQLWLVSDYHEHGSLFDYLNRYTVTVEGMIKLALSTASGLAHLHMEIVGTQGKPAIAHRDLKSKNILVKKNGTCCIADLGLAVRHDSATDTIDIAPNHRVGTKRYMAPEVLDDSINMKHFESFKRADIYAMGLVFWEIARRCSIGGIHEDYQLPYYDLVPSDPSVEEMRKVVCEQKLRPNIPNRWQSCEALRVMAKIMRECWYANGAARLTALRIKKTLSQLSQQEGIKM
Outline: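 Tracer-displacement TR-FRET: after 30 min RT compound–kinase preincubation, Eu-labelled anti-GST antibody plus Kinase Tracer 178 were incubated 60 min at RT. Binding was read as a lower 665 nm/615 nm emission ratio (excitation 340 nm).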

TGF-β signaling = experiment: Assay for evaluating cellular inhibition of TGF-β signaling, 4T1 (SBE-luc2P) luciferase reporter; format: cell-based; conditions: Mus musculus, 4T1, 4T1 (SBE-luc2P) transient pool, 0.2% FBS, 2 h pre-treatment, TGF-β1 2 ng/mL 24 h; read-out: IC50 4T1 Cell
Outline: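 Luminescence from SMAD-binding-element luciferase was measured after 24 h of 2 ng/mL TGF-β1 at 37 °C, following 2 h compound pre-treatment. HEK293 stable reporter cells were used at 2.5×10^4/well in 0.5% FBS (~80% confluent); the 4T1 SBE-luc2P transient pool at 6×10^3/well in 0.2% FBS (~60% confluent).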

IC50 (ALK5 kinase) [nM] | IC50 (TGF-β signaling) [nM] | SMILES
< 100 | > 100 | CN(C)C(=O)c1cccc(Nc2cc(Oc3sc(N)nc3-c3ccccc3)ccn2)c1 [A-10, 3-((4-((2-Amino-4-phenylthiazol-5-yl)oxy)pyridin-2-yl)amino)-N,N-dimethylbenzamide]
< 100 | > 100 | CN(C)c1nc(-c2ccccc2)c(Oc2ccnc(Nc3ccc(C(C)(C)O)nc3)c2)s1 [A-159, 2-(5-((4-((2-(Dimethylamino)-4-phenylthiazol-5-yl)oxy)pyridin-2-yl)amino)pyridin-2-yl)propan-2-ol]
> 100 | > 100 | O=C(O)c1ccc(Nc2cc(Oc3sc(C4CCCCC4)nc3-c3ccccc3)ccn2)cc1 [A-179, 4-((4-((2-Cyclohexyl-4-phenylthiazol-5-yl)oxy)pyridin-2-yl)amino)benzoic acid]
> 100 | < 100 | CCc1nc(-c2cccc(C)n2)c(Oc2ccnc(Nc3cccc(C(=O)O)n3)c2)s1 [A-254, 6-((4-((2-Ethyl-4-(6-methylpyridin-2-yl)thiazol-5-yl)oxy)pyridin-2-yl)amino)picolinic acid]
< 100 | < 100 | CCc1nc(-c2ccccc2)c(Oc2ccnc(Nc3cccc(NS(=O)(=O)CC)c3)c2)s1 [A-188, N-(3-((4-((2-Ethyl-4-phenylthiazol-5-yl)oxy)pyridin-2-yl)amino)phenyl)ethanesulfonamide]
< 100 | < 100 | Cc1cccc(-c2nc(C3CC3)sc2Oc2ccnc(Nc3cccc(C(N)=O)c3)c2)n1 [A-274, 3-((4-((2-Cyclopropyl-4-(6-methylpyridin-2-yl)thiazol-5-yl)oxy)pyridin-2-yl)amino)benzamide]
< 100 | < 100 | Cc1cccc(-c2nc(N(C)C)sc2Oc2ccnc(Nc3ccc(C(N)=O)cn3)c2)n1 [A-284, 6-((4-((2-(Dimethylamino)-4-(6-methylpyridin-2-yl)thiazol-5-yl)oxy)pyridin-2-yl)amino)nicotinamide]
< 100 | < 100 | Cc1nc(-c2ccccc2)c(Oc2ccnc(Nc3cncc(C(N)=O)c3)c2)s1 [A-92, 5-((4-((2-Methyl-4-phenylthiazol-5-yl)oxy)pyridin-2-yl)amino)nicotinamide]
< 100 | > 100 | CNc1nc(-c2ccccc2)c(Oc2ccnc(Nc3cccc(C(N)=O)c3)c2)s1 [A-52, 3-((4-((2-(Methylamino)-4-phenylthiazol-5-yl)oxy)pyridin-2-yl)amino)benzamide]
< 100 | < 100 | CCc1nc(-c2cccc(C)n2)c(Oc2ccnc(Nc3cccc(C(N)=O)c3)c2)s1 [A-258, 3-((4-((2-Ethyl-4-(6-methylpyridin-2-yl)thiazol-5-yl)oxy)pyridin-2-yl)amino)benzamide]
< 100 | < 100 | CCS(=O)(=O)Nc1cccc(Nc2cc(Oc3sc(C4CC4)nc3-c3ccccc3)ccn2)c1 [A-122, N-(3-((4-((2-Cyclopropyl-4-phenylthiazol-5-yl)oxy)pyridin-2-yl)amino)phenyl)ethanesulfonamide]
< 100 | < 100 | NC(=O)c1ccc(Nc2cc(Oc3sc(C4CC4)nc3-c3ccccc3)ccn2)nc1 [A-129, 6-((4-((2-Cyclopropyl-4-phenylthiazol-5-yl)oxy)pyridin-2-yl)amino)nicotinamide]
> 100 | > 100 | NC(=O)c1ccc(Nc2cc(Oc3sc(C4CCCCC4)nc3-c3ccccc3)ccn2)nc1 [A-177, 6-((4-((2-Cyclohexyl-4-phenylthiazol-5-yl)oxy)pyridin-2-yl)amino)nicotinamide]
< 100 | < 100 | CCc1nc(-c2ccccc2)c(Oc2ccnc(Nc3ccc(C(=O)O)cc3)c2)s1 [A-195, 4-((4-((2-Ethyl-4-phenylthiazol-5-yl)oxy)pyridin-2-yl)amino)benzoic acid]
< 100 | < 100 | CN(C)c1nc(-c2ccccc2)c(Oc2ccnc(Nc3ccc(C(N)=O)cc3)c2)s1 [A-157, 4-((4-((2-(Dimethylamino)-4-phenylthiazol-5-yl)oxy)pyridin-2-yl)amino)benzamide]
< 100 | < 100 | CCc1nc(-c2ccccc2)c(Oc2ccnc(Nc3cccc(C(N)=O)c3)c2)s1 [A-183, 3-((4-((2-Ethyl-4-phenylthiazol-5-yl)oxy)pyridin-2-yl)amino)benzamide]
< 100 | > 100 | CCc1nc(-c2ccccc2)c(Oc2ccnc(Nc3ccc(S(N)(=O)=O)cc3)c2)s1 [A-184, 4-((4-((2-Ethyl-4-phenylthiazol-5-yl)oxy)pyridin-2-yl)amino)benzenesulfonamide]

IC50 (ALK5 kinase) [nM] | IC50 (TGF-β signaling) [nM] | SMILES
< 100 | < 100 | CNC(=O)c1ccc(Nc2cc(Oc3sc(C4CC4)nc3-c3ccccc3)ccn2)cc1 [A-126, 4-((4-((2-Cyclopropyl-4-phenylthiazol-5-yl)oxy)pyridin-2-yl)amino)-N-methylbenzamide]
< 100 | > 100 | CC(C)c1nc(-c2ccccc2)c(Oc2ccnc(Nc3ccnc(C(C)(C)O)c3)c2)s1 [A-223, 2-(4-((4-((2-Isopropyl-4-phenylthiazol-5-yl)oxy)pyridin-2-yl)amino)pyridin-2-yl)propan-2-ol]
< 100 | < 100 | Cc1cccc(-c2nc(C(F)(F)F)sc2Oc2ccnc(Nc3ccc(C(N)=O)cn3)c2)n1 [A-290]
< 100 | < 100 | CCc1nc(-c2ccccc2)c(Oc2ccnc(Nc3ccnc(C(C)(C)O)c3)c2)s1 [A-186, 2-(4-((4-((2-Ethyl-4-phenylthiazol-5-yl)oxy)pyridin-2-yl)amino)pyridin-2-yl)propan-2-ol]
< 100 | > 100 | CNc1nc(-c2ccccc2)c(Oc2ccnc(Nc3cccc(C(=O)O)c3)c2)s1 [A-57, 3-((4-((2-(Methylamino)-4-phenylthiazol-5-yl)oxy)pyridin-2-yl)amino)benzoic acid]
< 100 | > 100 | CC(C)c1nc(-c2ccccc2)c(Oc2ccnc(Nc3cccc(C(N)=O)n3)c2)s1 [A-226, 6-((4-((2-Isopropyl-4-phenylthiazol-5-yl)oxy)pyridin-2-yl)amino)picolinamide]
< 100 | > 100 | Cc1nc(-c2ccccc2)c(Oc2ccnc(Nc3ccc(C(N)=O)cc3)c2)s1 [A-63]
< 100 | < 100 | NC(=O)c1ccc(Nc2cc(Oc3sc(N)nc3-c3ccccc3)ccn2)nc1 [A-9, 6-((4-((2-Amino-4-phenylthiazol-5-yl)oxy)pyridin-2-yl)amino)nicotinamide]
< 100 | < 100 | CCc1nc(-c2ccccc2)c(Oc2ccnc(Nc3ccc(C(N)=O)cn3)c2)s1 [A-190, 6-((4-((2-Ethyl-4-phenylthiazol-5-yl)oxy)pyridin-2-yl)amino)nicotinamide]
< 100 | < 100 | Cc1nc(-c2ccccc2)c(Oc2ccnc(Nc3cccc(S(N)(=O)=O)c3)c2)s1 [A-58, 3-((4-((2-Methyl-4-phenylthiazol-5-yl)oxy)pyridin-2-yl)amino)benzenesulfonamide]
< 100 | < 100 | Cc1nc(-c2ccccc2)c(Oc2ccnc(Nc3cccc(NS(C)(=O)=O)c3)c2)s1 [A-71, N-(3-((4-((2-Methyl-4-phenylthiazol-5-yl)oxy)pyridin-2-yl)amino)phenyl)methanesulfonamide]
< 100 | < 100 | O=C(O)c1ccc(Nc2cc(Oc3sc(C4CC4)nc3-c3ccccc3)ccn2)cc1 [A-136, 4-((4-((2-Cyclopropyl-4-phenylthiazol-5-yl)oxy)pyridin-2-yl)amino)benzoic acid]
< 100 | > 100 | CN(C)c1nc(-c2ccccc2)c(Oc2ccnc(Nc3cccc(C(=O)O)n3)c2)s1 [A-169, 6-((4-((2-(Dimethylamino)-4-phenylthiazol-5-yl)oxy)pyridin-2-yl)amino)picolinic acid]
< 100 | < 100 | CCc1nc(-c2ccccc2)c(Oc2ccnc(Nc3cccc(S(N)(=O)=O)c3)c2)s1 [A-181, 3-((4-((2-Ethyl-4-phenylthiazol-5-yl)oxy)pyridin-2-yl)amino)benzenesulfonamide]
< 100 | > 100 | CN(C)c1nc(-c2ccccc2)c(Oc2ccnc(Nc3ccc(S(N)(=O)=O)cc3)c2)s1 [A-156, 4-((4-((2-(Dimethylamino)-4-phenylthiazol-5-yl)oxy)pyridin-2-yl)amino)benzenesulfonamide]
> 100 | > 100 | CNC(=O)c1ccc(Nc2cc(Oc3sc(C4CCCC4)nc3-c3ccccc3)ccn2)nc1 [A-176, 6-((4-((2-Cyclopentyl-4-phenylthiazol-5-yl)oxy)pyridin-2-yl)amino)-N-methylnicotinamide]
< 100 | > 100 | CC(C)(O)c1cc(Nc2cc(Oc3sc(N)nc3-c3ccccc3)ccn2)ccn1 [A-42, 2-(4-((4-((2-Amino-4-phenylthiazol-5-yl)oxy)pyridin-2-yl)amino)pyridin-2-yl)propan-2-ol]

From patent publication US20250206730A1 (AUTOTELIC BIO INC., priority 2022, published 2025)
